Measured values taken from patent publication US20220326125A1, “BIOLOGICAL TISSUE STAINING REAGENT, BIOLOGICAL TISSUE STAINING KIT AND BIOLOGICAL TISSUE STAINING METHOD” (CUBICStars, Inc., priority 2019, published 2022).

Assays:
[1] = system: defatted mouse cerebral hemisphere; assay: 3D immunostaining with combinations of additives; conditions: Immunostaining Buffer E; antibodies against synaptophysin, Gad67, Dat or Th; 32° C., 3 to 4 days
Text: Fab-anti-mouse or rabbit IgG against each primary antibody, labeled with Alexa 594 (manufactured by Jackson ImmunoResearch laboratories; Fab-anti-mouse IgG1-[…] (#115-587-185), Fab-anti-mouse IgG2a-[…] (#115-587-186), or Fab-anti-rabbit IgG-[…] (#111-587-008), added such that the weight ratio to each primary antibody was about 1:0.75); and predetermined concentrations of additives (two or three selected from #0854, #1086, and #0609 described in FIG. 1A and #0146 described in FIG. 1B).

[2] = system: defatted column of the cerebral cortex area of pig brain; assay: Evaluation of antibody penetration efficiency (peak-bottom ratio), anti-synaptophysin antibody; conditions: 2.5% by weight in Immunostaining Buffer E vs distilled water, 32° C., 1 day
Method: After the defatting treatment, the sample was washed with PBS, and soaked in Immunostaining Buffer E that was mixed with a mouse monoclonal anti-synaptophysin antibody (manufactured by Medical & Biological Laboratories Co., Ltd.; #D073-3; 20 μg/mL) and Fab-anti-mouse IgG1 labeled with Alexa 594 (added such that the weight ratio to the anti-synaptophysin antibody was about 1:1) and further supplemented with 2.5% by weight Quadrol or the same amount of distilled water. The sample was stained at 32° C. for 1 day. After the staining, the sample was washed with PB-Triton and PB, and a frozen section in the central portion of the sample was prepared.
FIGS. 18A and B show images of the frozen sections of the samples stained with Immunostaining Buffer E to which distilled water or Quadrol, respectively, was added. […] For quantification, a representative area showing almost uniform staining of the left and right sides of the column was selected using a micrographic image, and a brightness-value graph was prepared. In the graph, the ratio (peak-bottom ratio) of the maximum brightness (peak) in the left and right to the minimum brightness (bottom) in the sample was high in the sample to which Quadrol was not added. […] Thus, using the peak-bottom ratio as a quantitative index of penetrability of an antibody into a tissue, a search was carried out for compounds as follows. […]

| Structure (SMILES) | penetration-promoting effect for the antibodies / staining performance inside the sample [1] | penetration of the antibody [2] |
| --- | --- | --- |
| CN(C)CCOCCO [#0146, 2-[2-(Dimethylamino)ethoxy]ethanol] | even stronger penetration-promoting effect | – |
| CC(O)CN(CCN(CC(C)O)CC(C)O)CC(C)O (centres unmarked) [Quadrol, N,N,N′,N′-tetrakis(2-hydroxypropyl)ethylenediamine] | – | penetration of the antibody was effectively increased |
